Measured values published in patent publication US20150065447A1, “SURVIVAL BENEFIT IN PATIENTS WITH SOLID TUMORS WITH ELEVATED C-REACTIVE PROTEIN LEVELS” (Incyte Corporation, priority 2013, published 2015).

Columns and labels:
[1] = target: T1, human JAK2 (a.a. 828-1132) (Homo sapiens, UniProt O60674); assay: In vitro JAK Kinase Assay (HTRF), JAK2 (for JAK2/JAK1 ratio); assay type: biochemical; settings: ratio of IC50s, 1 mM ATP
T1 construct: JAK2 (a.a. 828-1132); His tag (N); made in house; host or cells: insect cells (baculovirus)
Procedure: (§1) The catalytic activity of JAK1 and JAK2 was assayed by measuring the phosphorylation of a biotinylated peptide. The phosphorylated peptide was detected by homogenous time resolved fluorescence (HTRF). […] Reactions were carried out at room temperature for 1 hr and then stopped with 20 μL 45 mM EDTA, 300 nM SA-APC, 6 nM Eu-Py20 in assay buffer (Perkin Elmer, Boston, Mass.). Binding to the Europium labeled antibody took place for 40 minutes and HTRF signal was measured on a Fusion plate reader (Perkin Elmer, Boston, Mass.).

[2] = target: T2, human JAK1 (a.a. 837-1142) (Homo sapiens, UniProt P23458); assay: In vitro JAK Kinase Assay (HTRF), JAK1; assay type: biochemical; settings: 1 mM ATP
T2 construct: human JAK1 (a.a. 837-1142); His tag (N); made in house; host or cells: insect cells (baculovirus)
Procedure: as §1

T2 sequence (P23458 849-1154): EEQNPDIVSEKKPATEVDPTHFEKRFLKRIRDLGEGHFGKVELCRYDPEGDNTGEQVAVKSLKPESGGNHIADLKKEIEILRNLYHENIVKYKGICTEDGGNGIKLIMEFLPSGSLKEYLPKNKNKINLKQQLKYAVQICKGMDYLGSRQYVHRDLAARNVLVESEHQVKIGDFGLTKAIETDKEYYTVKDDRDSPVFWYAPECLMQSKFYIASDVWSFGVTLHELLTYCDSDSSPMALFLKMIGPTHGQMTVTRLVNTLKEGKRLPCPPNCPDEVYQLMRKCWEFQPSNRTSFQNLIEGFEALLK
T1 sequence (O60674 828-1132): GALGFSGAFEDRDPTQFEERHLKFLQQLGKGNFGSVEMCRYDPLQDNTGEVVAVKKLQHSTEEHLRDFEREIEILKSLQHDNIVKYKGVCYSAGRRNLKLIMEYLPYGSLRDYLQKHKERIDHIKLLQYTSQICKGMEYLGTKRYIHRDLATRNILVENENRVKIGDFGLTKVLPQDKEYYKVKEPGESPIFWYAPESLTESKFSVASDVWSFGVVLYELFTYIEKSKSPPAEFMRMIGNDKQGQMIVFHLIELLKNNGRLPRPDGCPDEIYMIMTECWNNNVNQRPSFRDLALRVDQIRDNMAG

Row | SMILES | JAK2/JAK1 [1] | IC50 [2]
1 | C[C@H](O)CNCc1cc(OC2CCN([C@H]3C[C@](CC#N)(n4cc(-c5ncnc6[nH]ccc56)cn4)C3)CC2)nc(C(F)(F)F)c1 [Compound 25, {trans-3-(4-{[4-({[(2S)-2-hydroxypropyl]amino}methyl)-6-(trifluoromethyl)pyridin-2-yl]oxy}piperidin-1-yl)-1-[4-(7H-pyrrolo[2,3-d]pyrimidin-4-yl)-1H-pyrazol-1-yl]cyclobutyl}acetonitrile] | >10 | < 0.01 µM
2 | C[C@@H](CO)NCc1cc(OC2CCN([C@H]3C[C@](CC#N)(n4cc(-c5ncnc6[nH]ccc56)cn4)C3)CC2)nc(C(F)(F)F)c1 [Compound 23, {trans-3-(4-{[4-({[(1S)-2-hydroxy-1-methylethyl]amino}methyl)-6-(trifluoromethyl)pyridin-2-yl]oxy}piperidin-1-yl)-1-[4-(7H-pyrrolo[2,3-d]pyrimidin-4-yl)-1H-pyrazol-1-yl]cyclobutyl}acetonitrile] | >10 | < 0.01 µM
3 | N#CCC1(n2cc(-c3ncnc4[nH]ccc34)cn2)CN([C@H]2CC[C@@H](Oc3cc(CCO)nc(C(F)(F)F)n3)CC2)C1 [Compound 18, (l-(cis-4-{[6-(2-hydroxyethyl)-2-(trifluoromethyl)pyrimidin-4-yl]oxy}cyclohexyl)-3-[4-(7H-pyrrolo[2,3-d]pyrimidin-4-yl)-1H-pyrazol-1-yl]azetidin-3-yl}acetonitrile] | >10 | < 0.01 µM
4 | N#CCC1(n2cc(-c3ncnc4[nH]ccc34)cn2)CN([C@H]2CC[C@@H](Oc3cc(CN4CC[C@@H](O)C4)cc(C(F)(F)F)n3)CC2)C1 [Compound 21, {1-(cis-4-{[4-{[(3R)-3-hydroxypyrrolidin-1-yl]methyl}-6-(trifluoromethyl)pyridin-2-yl]oxy}cyclohexyl)-3-[4-(7H-pyrrolo[2,3-d]pyrimidin-4-yl)-1H-pyrazol-1-yl]azetidin-3-yl}acetonitrile] | >10 | < 0.01 µM
5 | CCNCc1cc(O[C@H]2CC[C@@H](N3CC(CC#N)(n4cc(-c5ncnc6[nH]ccc56)cn4)C3)CC2)nc(C(F)(F)F)c1 [Compound 19, {l-(cis-4-{[4-[(ethylamino)methyl]-6-(trifluoromethyl)pyridin-2-yl]oxy}cyclohexyl)-3-[4-(7H-pyrrolo[2,3-d]pyrimidin-4-yl)-1H-pyrazol-1-yl]azetidin-3-yl}acetonitrile] | >10 | < 0.01 µM

The remaining lines, values ahead:

Row | JAK2/JAK1 [1] | IC50 [2] | SMILES
6 | >10 | < 0.1 µM | C[C@@H](O)c1nc2cnc3ccsc3c2n1[C@H]1CC[C@H](CC#N)OC1 [Compound 1, ((2R,5S)-5-{2-[(1R)-1-hydroxyethyl]-1H-imidazo[4,5-d]thieno[3,2-b]pyridin-1-yl}tetrahydro-2H-pyran-2-yl)acetonitrile]
7 | >10 | < 0.01 µM | N#CC[C@]1(n2cc(-c3ncnc4[nH]ccc34)cn2)C[C@H](N2CCC(Oc3cc(CN4CC(O)C4)cc(C(F)(F)F)n3)CC2)C1 [Compound 11, {trans-3-(4-{[4-[(3-hydroxyazetidin-1-yl)methyl]-6-(trifluoromethyl)pyridin-2-yl]oxy}piperidin-1-yl)-1-[4-(7H-pyrrolo[2,3-d]pyrimidin-4-yl)-1H-pyrazol-1-yl]cyclobutyl}acetonitrile]
8 | >10 | < 0.01 µM | CC(C)(O)c1cc(O[C@H]2CC[C@@H](N3CC(CC#N)(n4cc(-c5ncnc6[nH]ccc56)cn4)C3)CC2)nc(C(F)(F)F)c1 [Compound 20, {1-(cis-4-{[4-(1-hydroxy-1-methylethyl)-6-(trifluoromethyl)pyridin-2-yl]oxy}cyclohexyl)-3-[4-(7H-pyrrolo[2,3-d]pyrimidin-4-yl)-1H-pyrazol-1-yl]azetidin-3-yl}acetonitrile]
9 | >10 | < 0.01 µM | C[C@@H](O)CNCc1cc(OC2CCN([C@H]3C[C@](CC#N)(n4cc(-c5ncnc6[nH]ccc56)cn4)C3)CC2)nc(C(F)(F)F)c1 [Compound 24, {trans-3-(4-{[4-({[(2R)-2-hydroxypropyl]amino}methyl)-6-(trifluoromethyl)pyridin-2-yl]oxy}piperidin-1-yl)-1-[4-(7H-pyrrolo[2,3-d]pyrimidin-4-yl)-1H-pyrazol-1-yl]cyclobutyl}acetonitrile]
10 | >10 | < 0.01 µM | C[C@H](NC(=O)c1cc(F)c(N2CC(CC#N)(n3cc(-c4ncnc5[nH]ccc45)cn3)C2)cc1F)C(F)(F)F [Compound 16, 4-{3-(cyanomethyl)-3-[4-(7H-pyrrolo[2,3-d]pyrimidin-4-yl)-1H-pyrazol-1-yl]azetidin-1-yl}-2,5-difluoro-N-[(1S)-2,2,2-trifluoro-1-methylethyl]benzamide]
